Source: PubChem BioAssay AID256 (DTP/NCI, 2004)
Where “and” joins values, the source holds several entries; their conditions need not be identical. Equal entries are not always repeated. Inconclusive results and toxic doses are left out. Rule for the calls: active = survival T/C of 150% or more; inactive = T/C below 125% in these data.

System: CD2F1 mice, L1210 leukemia ip, survival T/C
Experiment: NCI In Vivo Anticancer Drug Screen. Data for tumor model L1210 Leukemia (intraperitoneal) in CD2F1 (CDF1) mice
Settings: higher = longer survival
How it was run: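 In this screen, transplantable tumors were grown in mice given either the compound or its vehicle. Results were expressed as the treated measurement relative to the control measurement.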

[1] = endpoint: mean survival time, dose: 100.0 mg/kg/injection, schedule: Q01DX009 (ip), vehicle: saline with Tween-80
[2] = endpoint: mean survival time, dose: 200.0 mg/kg/injection, schedule: Q01DX009 (ip), vehicle: saline with Tween-80
[3] = endpoint: mean survival time, dose: 400.0 mg/kg/injection, schedule: Q01DX009 (ip), vehicle: saline with Tween-80
[4] = endpoint: mean survival time, dose: 100.0 mg/kg/injection, schedule: Q01DX001 (ip), vehicle: saline

Measured: T/C

CCCCCCCCCCCCCCCC[N+]1(CCC)CCSCC1
inactive: endpoint: mean survival time, dose: 100.0 mg/kg/injection, schedule: Q01DX001 (ip), vehicle: saline with Tween-80 102 % of control | endpoint: mean survival time, dose: 200.0 mg/kg/injection, schedule: Q01DX001 (ip), vehicle: saline with Tween-80 110 % of control

C=CC(=O)CCCC(=O)O
inactive: [1] 100 % of control | [2] 102 % of control | [3] 104 % of control

OCC1OC(n2cnc3c2NC=NC[C@H]3O)CC1O (some centres not stated)
inactive: endpoint: mean survival time, dose: 0.13 mg/kg/injection, schedule: Q01DX005 (ip), vehicle: water 93 % of control | endpoint: mean survival time, dose: 0.13 mg/kg/injection, schedule: Q01DX009 (ip), vehicle: water 95 % of control | endpoint: mean survival time, dose: 0.2 mg/kg/injection, schedule: Q03HX024 (ip), vehicle: saline with Tween-80 102 % of control | endpoint: mean survival time, dose: 0.25 mg/kg/injection, schedule: Q01DX005 (ip), vehicle: water 108 % of control | endpoint: mean survival time, dose: 0.25 mg/kg/injection, schedule: Q01DX009 (ip), vehicle: water 101 % of control | endpoint: mean survival time, dose: 0.25 mg/kg/injection, schedule: Q04DX002 (ip), vehicle: water 94 % of control | endpoint: mean survival time, dose: 0.25 mg/kg/injection, schedule: Q04DX003 (ip), vehicle: water 99 % of control | endpoint: mean survival time, dose: 0.3 mg/kg/injection, schedule: Q03HX024 (ip), vehicle: saline with Tween-80 101 % of control | endpoint: mean survival time, dose: 0.4 mg/kg/injection, schedule: Q03HX024 (ip), vehicle: saline with Tween-80 115 % of control and 103 % of control | endpoint: mean survival time, dose: 0.5 mg/kg/injection, schedule: Q03HX024 (ip), vehicle: saline with Tween-80 116 % of control | endpoint: mean survival time, dose: 0.5 mg/kg/injection, schedule: Q04DX002 (ip), vehicle: water 101 % of control | endpoint: mean survival time, dose: 0.5 mg/kg/injection, schedule: Q04DX003 (ip), vehicle: water 96 % of control | endpoint: mean survival time, dose: 0.6 mg/kg/injection, schedule: Q03HX024 (ip), vehicle: saline with Tween-80 110 % of control | endpoint: mean survival time, dose: 0.75 mg/kg/injection, schedule: Q03HX024 (ip), vehicle: saline with Tween-80 111 % of control | endpoint: median survival time, dose: 0.1 mg/kg/injection, schedule: Q01DX009 (ip), vehicle: saline 101 % of control | endpoint: median survival time, dose: 0.13 mg/kg/injection, schedule: Q01DX009 (ip), vehicle: saline 102 % of control | endpoint: median survival time, dose: 0.21 mg/kg/injection, schedule: Q01DX009 (ip), vehicle: saline 113 % of control | endpoint: median survival time, dose: 0.25 mg/kg/injection, schedule: Q01DX009 (ip), vehicle: saline 104 % of control and 108 % of control | endpoint: median survival time, dose: 0.25 mg/kg/injection, schedule: Q03HX012 (ip), vehicle: saline 112 % of control | endpoint: median survival time, dose: 0.3 mg/kg/injection, schedule: Q01DX009 (ip), vehicle: saline 104 % of control | endpoint: median survival time, dose: 0.5 mg/kg/injection, schedule: Q01DX009 (ip), vehicle: saline 104 % of control and 110 % of control | endpoint: median survival time, dose: 0.5 mg/kg/injection, schedule: Q03HX012 (ip), vehicle: saline 113 % of control | endpoint: median survival time, dose: 1.0 mg/kg/injection, schedule: Q01DX009 (ip), vehicle: saline 108 % of control | endpoint: median survival time, dose: 2.0 mg/kg/injection, schedule: Q01DX009 (ip), vehicle: saline 102 % of control | endpoint: median survival time, dose: 3.0 mg/kg/injection, schedule: Q01DX005 (ip), vehicle: saline 95 % of control | endpoint: median survival time, dose: 3.0 mg/kg/injection, schedule: Q01DX009 (ip), vehicle: saline 109 % of control | endpoint: median survival time, dose: 4.0 mg/kg/injection, schedule: Q01DX005 (ip), vehicle: saline 100 % of control | endpoint: median survival time, dose: 5.0 mg/kg/injection, schedule: Q01DX005 (ip), vehicle: saline 97 % of control | endpoint: median survival time, dose: 6.0 mg/kg/injection, schedule: Q01DX005 (ip), vehicle: saline 97 % of control | endpoint: median survival time, dose: 7.0 mg/kg/injection, schedule: Q01DX005 (ip), vehicle: saline 104 % of control | endpoint: median survival time, dose: 10.0 mg/kg/injection, schedule: Q01DX009 (ip), vehicle: saline 109 % of control

COc1cc(C2C3CN(C4CCCCC4)C(=O)C3NN2C(C)=O)ccc1OC(C)=O (configuration not stated)
inactive: [1] 93 % of control | [2] 95 % of control | [3] 95 % of control

CS(=O)(=O)OCCCCOS(C)(=O)=O
inactive: endpoint: mean survival time, dose: 3.75 mg/kg/injection, schedule: Q01DX009 (ip), vehicle: saline with Tween-80 92 % of control | endpoint: mean survival time, dose: 3.75 mg/kg/injection, schedule: Q03HX008 (ip), vehicle: saline with Tween-80 96 % of control | endpoint: mean survival time, dose: 3.75 mg/kg/injection, schedule: Q03HX016 (ip), vehicle: saline with Tween-80 94 % of control | endpoint: mean survival time, dose: 3.75 mg/kg/injection, schedule: Q03HX024 (ip), vehicle: saline with Tween-80 104 % of control | endpoint: mean survival time, dose: 7.5 mg/kg/injection, schedule: Q01DX009 (ip), vehicle: saline with Tween-80 102 % of control | endpoint: mean survival time, dose: 7.5 mg/kg/injection, schedule: Q03HX008 (ip), vehicle: saline with Tween-80 100 % of control | endpoint: mean survival time, dose: 7.5 mg/kg/injection, schedule: Q03HX016 (ip), vehicle: saline with Tween-80 98 % of control | endpoint: mean survival time, dose: 7.5 mg/kg/injection, schedule: Q03HX024 (ip), vehicle: saline with Tween-80 106 % of control | endpoint: mean survival time, dose: 12.5 mg/kg/injection, schedule: Q01DX001 (ip), vehicle: saline 98 % of control | endpoint: mean survival time, dose: 15.0 mg/kg/injection, schedule: Q01DX009 (ip), vehicle: saline with Tween-80 97 % of control | endpoint: mean survival time, dose: 15.0 mg/kg/injection, schedule: Q01DX009 (oral), vehicle: saline with Tween-80 97 % of control | endpoint: mean survival time, dose: 15.0 mg/kg/injection, schedule: Q03HX008 (ip), vehicle: saline with Tween-80 102 % of control | endpoint: mean survival time, dose: 15.0 mg/kg/injection, schedule: Q03HX016 (ip), vehicle: saline with Tween-80 98 % of control | endpoint: mean survival time, dose: 15.0 mg/kg/injection, schedule: Q03HX024 (ip), vehicle: saline with Tween-80 103 % of control | endpoint: mean survival time, dose: 25.0 mg/kg/injection, schedule: Q01DX001 (ip), vehicle: saline 102 % of control | endpoint: mean survival time, dose: 30.0 mg/kg/injection, schedule: Q01DX001 (ip), vehicle: saline with Tween-80 98 % of control | endpoint: mean survival time, dose: 30.0 mg/kg/injection, schedule: Q01DX009 (ip), vehicle: saline with Tween-80 100 % of control | endpoint: mean survival time, dose: 30.0 mg/kg/injection, schedule: Q01DX009 (oral), vehicle: saline with Tween-80 94 % of control | endpoint: mean survival time, dose: 30.0 mg/kg/injection, schedule: Q03HX008 (ip), vehicle: saline with Tween-80 107 % of control | endpoint: mean survival time, dose: 30.0 mg/kg/injection, schedule: Q03HX016 (ip), vehicle: saline with Tween-80 98 % of control | endpoint: mean survival time, dose: 30.0 mg/kg/injection, schedule: Q03HX024 (ip), vehicle: saline with Tween-80 107 % of control | endpoint: mean survival time, dose: 30.0 mg/kg/injection, schedule: Q04DX003 (ip), vehicle: saline with Tween-80 101 % of control | endpoint: mean survival time, dose: 30.0 mg/kg/injection, schedule: Q08DX002 (ip), vehicle: saline with Tween-80 98 % of control | endpoint: mean survival time, dose: 50.0 mg/kg/injection, schedule: Q01DX001 (ip), vehicle: saline 101 % of control | endpoint: mean survival time, dose: 60.0 mg/kg/injection, schedule: Q01DX001 (ip), vehicle: saline with Tween-80 104 % of control | endpoint: mean survival time, dose: 60.0 mg/kg/injection, schedule: Q01DX001 (oral), vehicle: saline with Tween-80 100 % of control | endpoint: mean survival time, dose: 60.0 mg/kg/injection, schedule: Q04DX003 (ip), vehicle: saline with Tween-80 96 % of control | endpoint: mean survival time, dose: 60.0 mg/kg/injection, schedule: Q08DX002 (ip), vehicle: saline with Tween-80 98 % of control | [4] 112 % of control | endpoint: mean survival time, dose: 120.0 mg/kg/injection, schedule: Q01DX001 (ip), vehicle: saline with Tween-80 104 % of control | endpoint: mean survival time, dose: 120.0 mg/kg/injection, schedule: Q08DX002 (ip), vehicle: saline with Tween-80 97 % of control | endpoint: mean survival time, dose: 240.0 mg/kg/injection, schedule: Q08DX002 (ip), vehicle: saline with Tween-80 100 % of control

COc1cc(OC)c2c(O)c3c(c(-c4ccc5cc6c(c(O)c5c4O)C(=O)CC(C)(O)C6)c2c1)CC(C)OC3C (configuration not stated)
inactive: endpoint: mean survival time, dose: 0.5 mg/kg/injection, schedule: Q01DX009 (ip), vehicle: Klucel (hydroxypropylcellulose) (HPC) 103 % of control | endpoint: mean survival time, dose: 1.0 mg/kg/injection, schedule: Q01DX009 (ip), vehicle: Klucel (hydroxypropylcellulose) (HPC) 100 % of control | endpoint: mean survival time, dose: 2.0 mg/kg/injection, schedule: Q01DX009 (ip), vehicle: Klucel (hydroxypropylcellulose) (HPC) 103 % of control

COc1ccc2c(c1)CCc1cn[nH]c1-2
inactive: [4] 101 % of control | endpoint: mean survival time, dose: 100.0 mg/kg/injection, schedule: Q04DX003 (ip), vehicle: saline 106 % of control | endpoint: mean survival time, dose: 200.0 mg/kg/injection, schedule: Q01DX001 (ip), vehicle: saline 103 % of control | endpoint: mean survival time, dose: 200.0 mg/kg/injection, schedule: Q04DX003 (ip), vehicle: saline 106 % of control | endpoint: mean survival time, dose: 400.0 mg/kg/injection, schedule: Q01DX001 (ip), vehicle: saline 98 % of control | endpoint: mean survival time, dose: 400.0 mg/kg/injection, schedule: Q04DX003 (ip), vehicle: saline 100 % of control

CC1=NCCc2ccccc21
inactive: endpoint: mean survival time, dose: 12.5 mg/kg/injection, schedule: Q04DX003 (ip), vehicle: saline 102 % of control | endpoint: mean survival time, dose: 25.0 mg/kg/injection, schedule: Q04DX003 (ip), vehicle: saline 93 % of control
